The source of these data is ChEMBL document CHEMBL4219045 (Bioorg Med Chem, 2018).

Data set [1] is described as follows: Toxicity in mouse. The following applies: in vivo. Format: organism-based.
In data set [2] the target is Acetylcholine receptor subunit epsilon (Homo sapiens, UniProt Q04844). Description: Inhibition of nAChR epsilon (unknown origin).
Data set [3] concerns the target Sodium channel protein type 5 subunit alpha (Homo sapiens, UniProt Q14524). Description: Inhibition of Nav1.5 (unknown origin) expressed in xenopus oocytes at -80 mV holding potential by two-electrode voltage-clamp method. Format: cell-based. (In two-electrode clamp one electrode senses voltage and the other passes current.)
Data set [4] concerns the target Sodium channel protein type 8 subunit alpha (Homo sapiens, UniProt Q9UQD0). Description: Inhibition of Nav1.6 (unknown origin).
In data set [5] the target is Sodium channel protein type 2 subunit alpha (Homo sapiens, UniProt Q99250). The data set can be described thus: Inhibition of Nav1.2 (unknown origin) expressed in xenopus oocytes at -80 mV holding potential by two-electrode voltage-clamp method. Format: cell-based.
The target of data set [6] is DPP4 (dipeptidyl peptidase 4) (Homo sapiens, UniProt P27487). Description: Stability in plasma (unknown origin) assessed as DPP4-mediated drug degradation by measuring half life. Format: ADME.
Data set [7] addresses T1, Transient receptor potential cation channel subfamily V member 6 (Homo sapiens, UniProt Q9H1D0).
T1 sequence (Q9H1D0 whole entry): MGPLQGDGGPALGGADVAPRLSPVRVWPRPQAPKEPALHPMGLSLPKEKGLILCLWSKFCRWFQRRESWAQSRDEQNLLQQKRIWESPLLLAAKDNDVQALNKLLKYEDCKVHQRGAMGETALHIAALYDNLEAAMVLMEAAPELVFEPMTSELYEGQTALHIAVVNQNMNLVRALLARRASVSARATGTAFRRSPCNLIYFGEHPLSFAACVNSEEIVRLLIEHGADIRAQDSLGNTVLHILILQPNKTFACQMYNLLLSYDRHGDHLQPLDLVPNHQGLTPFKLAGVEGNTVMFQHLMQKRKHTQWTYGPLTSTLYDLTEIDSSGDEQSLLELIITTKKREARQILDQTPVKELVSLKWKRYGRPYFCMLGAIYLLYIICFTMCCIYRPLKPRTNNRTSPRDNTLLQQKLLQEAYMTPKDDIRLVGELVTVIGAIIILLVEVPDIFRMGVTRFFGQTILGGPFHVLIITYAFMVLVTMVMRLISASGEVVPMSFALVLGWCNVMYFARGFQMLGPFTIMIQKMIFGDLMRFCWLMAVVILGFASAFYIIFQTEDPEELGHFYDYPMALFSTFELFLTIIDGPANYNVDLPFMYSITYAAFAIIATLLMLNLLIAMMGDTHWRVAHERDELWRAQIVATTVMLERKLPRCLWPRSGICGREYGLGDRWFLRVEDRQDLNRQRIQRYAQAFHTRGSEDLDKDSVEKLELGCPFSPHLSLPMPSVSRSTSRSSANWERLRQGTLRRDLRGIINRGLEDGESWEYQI
The data set can be described thus: Inhibition of TRPV6 (unknown origin) expressed in HEK293 cells by whole cell patch clamp assay. Format: cell-based. A general note: Patch clamp records ionic current or voltage across a cell membrane.

Positions of bridges follow the written chain, without caps; N, C: chain ends. Residues, ends and D or L forms follow the SMILES beside them.

Sequence of Sodium channel protein type 5 subunit alpha (Q14524 whole entry): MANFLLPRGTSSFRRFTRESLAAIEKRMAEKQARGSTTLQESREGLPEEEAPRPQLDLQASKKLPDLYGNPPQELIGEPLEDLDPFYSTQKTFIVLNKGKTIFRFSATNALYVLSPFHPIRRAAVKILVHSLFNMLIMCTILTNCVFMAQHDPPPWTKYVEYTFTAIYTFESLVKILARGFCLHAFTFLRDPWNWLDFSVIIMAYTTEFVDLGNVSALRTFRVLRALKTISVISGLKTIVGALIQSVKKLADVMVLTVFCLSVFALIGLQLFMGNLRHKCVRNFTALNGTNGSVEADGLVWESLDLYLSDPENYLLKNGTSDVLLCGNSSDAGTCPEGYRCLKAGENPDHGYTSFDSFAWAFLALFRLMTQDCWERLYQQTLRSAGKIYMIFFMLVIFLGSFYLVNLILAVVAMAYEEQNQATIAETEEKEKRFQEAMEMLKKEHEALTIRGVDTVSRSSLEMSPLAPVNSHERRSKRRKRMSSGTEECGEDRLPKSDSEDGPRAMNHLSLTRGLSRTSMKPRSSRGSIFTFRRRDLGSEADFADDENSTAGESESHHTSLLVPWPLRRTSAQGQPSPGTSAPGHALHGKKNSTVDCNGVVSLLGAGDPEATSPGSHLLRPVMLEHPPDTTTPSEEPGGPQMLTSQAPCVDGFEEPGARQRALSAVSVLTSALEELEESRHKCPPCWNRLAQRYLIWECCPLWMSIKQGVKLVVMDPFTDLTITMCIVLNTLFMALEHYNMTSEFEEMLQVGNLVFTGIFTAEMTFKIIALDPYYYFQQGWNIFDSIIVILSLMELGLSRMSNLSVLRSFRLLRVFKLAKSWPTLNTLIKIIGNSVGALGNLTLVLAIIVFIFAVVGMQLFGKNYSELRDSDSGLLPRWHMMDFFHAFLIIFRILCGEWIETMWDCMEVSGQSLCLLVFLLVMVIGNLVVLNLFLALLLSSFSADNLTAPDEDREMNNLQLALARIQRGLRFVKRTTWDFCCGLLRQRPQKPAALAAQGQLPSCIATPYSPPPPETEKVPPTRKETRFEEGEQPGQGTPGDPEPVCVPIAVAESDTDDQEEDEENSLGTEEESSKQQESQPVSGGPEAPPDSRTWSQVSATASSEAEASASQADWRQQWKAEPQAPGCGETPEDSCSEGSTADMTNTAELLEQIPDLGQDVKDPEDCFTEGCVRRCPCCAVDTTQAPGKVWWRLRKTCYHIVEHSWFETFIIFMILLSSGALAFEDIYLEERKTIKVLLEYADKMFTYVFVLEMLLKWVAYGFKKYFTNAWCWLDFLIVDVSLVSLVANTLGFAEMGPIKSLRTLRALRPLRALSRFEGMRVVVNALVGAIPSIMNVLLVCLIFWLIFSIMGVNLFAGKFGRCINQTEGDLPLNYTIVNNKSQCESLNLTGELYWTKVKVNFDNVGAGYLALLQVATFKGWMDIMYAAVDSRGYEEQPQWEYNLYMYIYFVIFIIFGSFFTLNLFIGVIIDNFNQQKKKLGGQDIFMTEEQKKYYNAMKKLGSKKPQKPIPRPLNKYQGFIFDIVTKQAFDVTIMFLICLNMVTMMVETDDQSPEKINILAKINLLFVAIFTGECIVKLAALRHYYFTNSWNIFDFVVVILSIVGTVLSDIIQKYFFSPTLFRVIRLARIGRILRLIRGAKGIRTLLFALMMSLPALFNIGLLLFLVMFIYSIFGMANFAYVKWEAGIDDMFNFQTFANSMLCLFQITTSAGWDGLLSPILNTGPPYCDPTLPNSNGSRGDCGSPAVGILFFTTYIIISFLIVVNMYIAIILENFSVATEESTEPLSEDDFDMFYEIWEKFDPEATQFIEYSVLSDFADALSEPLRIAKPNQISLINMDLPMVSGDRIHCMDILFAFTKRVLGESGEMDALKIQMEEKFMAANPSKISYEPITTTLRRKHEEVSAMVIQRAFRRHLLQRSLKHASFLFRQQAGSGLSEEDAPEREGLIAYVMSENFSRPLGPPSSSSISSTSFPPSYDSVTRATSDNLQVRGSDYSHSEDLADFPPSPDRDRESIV
Sequence of Sodium channel protein type 8 subunit alpha (Q9UQD0 whole entry): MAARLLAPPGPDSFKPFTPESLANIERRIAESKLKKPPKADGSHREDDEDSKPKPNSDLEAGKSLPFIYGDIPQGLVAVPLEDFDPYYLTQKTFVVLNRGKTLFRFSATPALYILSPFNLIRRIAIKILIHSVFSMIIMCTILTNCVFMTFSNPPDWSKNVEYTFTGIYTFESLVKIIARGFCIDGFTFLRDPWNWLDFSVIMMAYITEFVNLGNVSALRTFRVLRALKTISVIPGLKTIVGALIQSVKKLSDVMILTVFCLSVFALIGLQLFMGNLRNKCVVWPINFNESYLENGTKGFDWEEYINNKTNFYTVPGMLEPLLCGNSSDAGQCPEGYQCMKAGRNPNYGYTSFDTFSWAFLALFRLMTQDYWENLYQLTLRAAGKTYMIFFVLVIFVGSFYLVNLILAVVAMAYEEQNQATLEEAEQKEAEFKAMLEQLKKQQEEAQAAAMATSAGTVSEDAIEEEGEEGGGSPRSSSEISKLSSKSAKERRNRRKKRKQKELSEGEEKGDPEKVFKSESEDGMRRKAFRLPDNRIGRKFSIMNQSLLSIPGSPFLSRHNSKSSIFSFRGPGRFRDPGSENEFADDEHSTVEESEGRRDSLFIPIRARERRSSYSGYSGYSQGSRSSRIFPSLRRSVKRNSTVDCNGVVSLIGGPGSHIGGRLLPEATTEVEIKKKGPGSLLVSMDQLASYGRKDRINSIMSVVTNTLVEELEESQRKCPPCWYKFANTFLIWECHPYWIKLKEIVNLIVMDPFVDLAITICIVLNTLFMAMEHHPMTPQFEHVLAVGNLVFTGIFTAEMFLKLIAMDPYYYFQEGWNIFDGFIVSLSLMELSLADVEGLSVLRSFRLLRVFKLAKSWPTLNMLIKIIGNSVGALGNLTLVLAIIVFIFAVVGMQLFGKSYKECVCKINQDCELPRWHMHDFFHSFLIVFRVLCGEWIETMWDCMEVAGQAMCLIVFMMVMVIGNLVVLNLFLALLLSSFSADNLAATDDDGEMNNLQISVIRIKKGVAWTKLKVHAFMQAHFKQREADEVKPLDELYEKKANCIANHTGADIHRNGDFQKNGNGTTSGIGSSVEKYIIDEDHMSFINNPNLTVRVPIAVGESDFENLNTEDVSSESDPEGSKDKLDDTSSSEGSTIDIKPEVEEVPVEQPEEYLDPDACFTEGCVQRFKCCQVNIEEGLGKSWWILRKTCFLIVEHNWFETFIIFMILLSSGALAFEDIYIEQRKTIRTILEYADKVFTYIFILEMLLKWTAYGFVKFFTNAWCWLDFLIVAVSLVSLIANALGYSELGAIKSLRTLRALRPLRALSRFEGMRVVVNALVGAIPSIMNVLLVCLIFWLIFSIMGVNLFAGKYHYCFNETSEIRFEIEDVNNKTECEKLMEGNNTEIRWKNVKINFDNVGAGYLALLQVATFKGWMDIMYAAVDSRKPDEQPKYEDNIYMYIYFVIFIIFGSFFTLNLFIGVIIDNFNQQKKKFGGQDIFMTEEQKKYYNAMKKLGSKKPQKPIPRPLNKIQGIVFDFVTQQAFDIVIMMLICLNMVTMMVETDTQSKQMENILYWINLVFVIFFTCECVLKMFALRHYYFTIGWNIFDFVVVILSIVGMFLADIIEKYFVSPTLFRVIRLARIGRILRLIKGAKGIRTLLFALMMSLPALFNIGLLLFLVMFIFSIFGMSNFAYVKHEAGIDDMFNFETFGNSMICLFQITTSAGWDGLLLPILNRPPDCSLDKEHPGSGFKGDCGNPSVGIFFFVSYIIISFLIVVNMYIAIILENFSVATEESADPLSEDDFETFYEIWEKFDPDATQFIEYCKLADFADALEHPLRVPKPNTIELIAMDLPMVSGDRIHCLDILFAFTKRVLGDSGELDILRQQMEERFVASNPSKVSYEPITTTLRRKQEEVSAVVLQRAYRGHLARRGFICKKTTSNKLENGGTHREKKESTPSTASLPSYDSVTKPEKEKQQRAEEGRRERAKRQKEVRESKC
Sequence of DPP4 (dipeptidyl peptidase 4) (P27487 whole entry): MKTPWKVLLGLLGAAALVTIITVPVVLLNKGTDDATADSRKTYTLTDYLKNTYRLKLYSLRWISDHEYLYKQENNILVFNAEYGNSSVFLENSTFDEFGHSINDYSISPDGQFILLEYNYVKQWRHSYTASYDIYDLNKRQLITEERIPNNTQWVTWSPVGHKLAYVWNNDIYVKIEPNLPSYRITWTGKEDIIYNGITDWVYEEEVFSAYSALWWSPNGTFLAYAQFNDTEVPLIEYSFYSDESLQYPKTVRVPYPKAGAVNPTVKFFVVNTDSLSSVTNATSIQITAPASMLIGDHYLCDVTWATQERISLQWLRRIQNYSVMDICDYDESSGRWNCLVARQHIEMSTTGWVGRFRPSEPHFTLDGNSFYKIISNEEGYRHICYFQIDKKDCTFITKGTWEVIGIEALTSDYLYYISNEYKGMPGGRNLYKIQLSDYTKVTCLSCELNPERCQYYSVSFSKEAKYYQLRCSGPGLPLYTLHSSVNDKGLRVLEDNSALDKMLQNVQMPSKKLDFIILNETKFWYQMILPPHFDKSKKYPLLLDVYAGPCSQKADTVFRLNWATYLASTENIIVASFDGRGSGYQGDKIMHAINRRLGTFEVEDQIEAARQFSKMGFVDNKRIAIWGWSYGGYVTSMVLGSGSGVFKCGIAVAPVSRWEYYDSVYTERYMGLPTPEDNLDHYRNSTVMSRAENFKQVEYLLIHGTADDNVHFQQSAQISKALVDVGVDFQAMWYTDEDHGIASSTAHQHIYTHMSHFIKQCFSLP

For orientation: LD50 means the dose expected to kill half of the subjects tested. Low readings indicate greater toxicity, high ones lower toxicity. For orientation: IC50 means the concentration that inhibits the measured activity by half. Low values mean higher potency, high ones lower potency. As for `CC[C@H](C)[C@H](NC(=O)[C@H](Cc1ccc(O)cc1)NC(=O)[C@H](Cc1cnc[nH]1)NC(=O)[C@@H]1CSSC[C@H](NC(=O)[C@@H]2CCCN2C(=O)[C@H](CCCNC(=N)N)NC(=O)[C@H](CC(C)C)NC(=O)[C@H](CC(=O)O)NC(=O)[C@@H]2CCCN2C(=O)[C@H](CCCCN)NC(=O)CNC(=O)CN)C(=O)N[C@@H](Cc2cnc[nH]2)C(=O)N2CCC[C@H]2C(=O)N2CCC[C@H]2C(=O)N1)C(=O)N1CCC[C@H]1C(=O)N[C@@H](CCCNC(=N)N)C(=O)N1CCC[C@H]1C(=O)N[C@@H](CCCCN)C(=O)N1CCC[C@H]1C(=O)N[C@@H](CCCNC(=N)N)C(=O)O` (H-GGKPDLRPCHPPCHYIPRPKPR-OH; disulfide 9-13), the median lethal dose (LD50) in data set [1] was 0.33 mg/kg. The IC50 in data set [2] came to 0.05 µM.
In the case of `CSCC[C@@H]1NC(=O)CNC(=O)[C@H](CCC(=O)O)NC(=O)[C@@H]2CSSC[C@H](NC(=O)[C@@H](N)Cc3ccc(O)cc3)C(=O)N[C@@H](CCC(N)=O)C(=O)N[C@@H](CCCCN)C(=O)N[C@@H](Cc3c[nH]c4ccccc34)C(=O)N[C@@H](CCSC)C(=O)N[C@@H](Cc3c[nH]c4ccccc34)C(=O)N[C@@H]([C@@H](C)O)C(=O)N[C@H]3CSSC[C@H](NC(=O)[C@H](C(C)C)NC1=O)C(=O)N[C@@H](CCCNC(=N)N)C(=O)N[C@@H](CC(C)C)C(=O)N[C@@H](Cc1c[nH]c4ccccc14)C(=O)N[C@H](C(=O)N[C@@H](CCCCN)C(=O)N[C@@H](CCCCN)C(=O)N[C@@H](CCCCN)C(=O)N[C@@H](CC(C)C)C(=O)N[C@@H](Cc1c[nH]c4ccccc14)C(=O)O)CSSC[C@H](NC(=O)[C@H](CCCCN)NC(=O)[C@H](CCCNC(=N)N)NC(=O)[C@H](CCC(=O)O)NC(=O)[C@H](CO)NC(=O)[C@H](CC(=O)O)NC3=O)C(=O)N2`, the IC50 in data set [3] was determined as 0.079 µM; in data set [4], 0.026 µM; in data set [5] it was 0.041 µM.
As a reminder, the half-life is how long it takes for the measured level to halve. “H-SDGTFTSDLSKQMEEEAVRLFIEWLKNGGPSGAPPPS-NH2”: the half-life in data set [6] came to 2 min.
H-KEFLHPSKVDLPR-OH [SOR-C13] registered an IC50 in data set [7] of 0.014 µM.
